The text below walks through data of patent US12478595B1, “Organoselenium compound for treating cancer” (IMAM MOHAMMAD IBN SAUD ISLAMIC UNIVERSITY, priority 2024, dated 2025).

What is called inhibition is the relative decrease from the control value, in per cent.

Molecules are shown by their SMILES.

Assay type in all cases: cell-based
Assay [1] relates to A375 (melanoma cancer). Description: growth inhibition of A375 cancer cell line. Conditions: Homo sapiens, A-375, read-out: growth inhibition percentage.
Assay [2] deals with HEPG2 (hepatocellular carcinoma). Briefly: growth inhibition of HEPG2 cancer cell line. Conditions: Homo sapiens, HepG2, read-out: growth inhibition percentage.
Assay [3] relates to normal oral epithelial cell line (OEC). Briefly: growth inhibition of OEC non-cancer cell line. Conditions: read-out: growth inhibition percentage.
Assay [4] relates to HN9 (human squamous cell carcinoma of the oral tongue). Description: growth inhibition of HN9 cancer cell line. The settings on record: read-out: growth inhibition percentage.
For assay [5], the system named is A549 (non-small cell lung cancer). Description: growth inhibition of A549 cancer cell line. The settings on record: Homo sapiens, A549, read-out: growth inhibition percentage.
The subject of assay [6] is HCT116 (colorectal carcinoma). Briefly: growth inhibition of HCT116 cancer cell line. The settings on record: Homo sapiens, HCT-116, read-out: growth inhibition percentage.
Assay [7] deals with HuH7 (hepatocellular carcinoma). Briefly: growth inhibition of HuH7 cancer cell line. Conditions: Homo sapiens, Huh-7, read-out: growth inhibition percentage.

Turning to `C[Se]c1ccc(NC(=O)NCC2(C)CC(NC(=O)Nc3ccc([Se]C)cc3)CC(C)(C)C2)cc1` (stereo not shown) [HB188, 1-(4-(methylselanyl)phenyl)-3-((1,3,3-trimethyl-5-(3-(4-(methylselanyl)phenyl)ureido)cyclohexyl)methyl)urea], the inhibition at 100 µg/mL in assay [1] was 66.8%; in assay [2], 76.2%; in assay [3], 32.7%; in assay [4] it was 74%; in assay [5], 74.4%; in assay [6] it was 85.3%. For the same molecule, the inhibition at 100 µg/mL in assay [7] stood at 88.6%.
